Data from paper PMC8990417, “^18F-labeled Dimer-Sansalvamide A Cyclodecapeptide: A Novel Diagnostic Probe to Discriminate Pancreatic Cancer from Inflammation in a Nude Mice Model” (Journal of Cancer, 2022).

Key:
PL45 cells = assay: MTT bioactivity assay (cell viability); type: cell-based, human; settings: 72 hours incubation
Procedure: A 3-(4,5-Dimethylthiazol-2-yl)-2,5-Diphenyltetrazolium Bromide (MTT) (Thermo Fisher Scientifc, NY, USA) assay was used to test the bioactivity of NOTA-Dimer-San A cyclodecapeptide. PL45 cells (5000 cells) were seeded in a 96-well plate and incubated overnight. […]. Each concentration was performed in triplicate, and the drug was incubated with the cells for 72 hours. Then 10 μL of MTT (5 mg/mL) was added into each well, incubated for 4 hours until a purple precipitate was visible, and then 100 μL of a detergent reagent was added and incubated until the crystal was dissolved. Finally, the optical density (proportional to the number of live cells) was assessed with a Synergy H1 Hybrid Reader (BioTek® Instruments Inc., Winooski, Vermont, USA) at 570 nm. The cell viability (%) was calculated with GraphPad Prism 5.0 software (GraphPad Software Inc., San Diego, CA, USA).

Hsp90 in PL45 cells = molecular target: T1, Hsp90 in PL45 cells (Homo sapiens, UniProt P07900); assay: Confocal cell immunofluorescence; type: cell-based; settings: biotin-peptide detected with Cy5 labeled avidin, anti-Hsp90α antibody co-stain
T1 construct: endogenous in cells; host or cells: PL45 cells
Procedure: PL45 cells (3-5 × 10^5) were seeded in a confocal plate with 500 µL of culture medium and incubated for 24 hours at 37°C with 5% CO2. The cell culture medium was then removed, and the cells were rinsed 3 times using phosphate buffered saline (PBS). The cells were fixed using 400 µL of 4% paraformaldehyde (pH 7.4) for 20 minutes at room temperature (RT, ~20°C). Then 500 µL of 3% Bovine Serum Albumin (BSA) (Sigma-Aldrich Corp., St. Louis, MO, USA) was added and incubated for 30 minutes at RT for blocking. The cells were washed and then 250 µL of diluted anti-hsp90α antibody (1:250) or biotine-Dimer-San A peptide was added and incubated for 24 hours at 4°C. The cells were washed, and the desired concentration of the fluorescent-dye-labeled secondary antibody (Abcam, Cambridge, UK) or Cy5 labeled avidin (Vector Laboratories, Burlingame, CA, USA) was added and protected from light at RT for 60 minutes. The supernatant was discarded, and the cells were washed, then a drop of antifade mounting medium with DAPI (Vector Laboratories, Burlingame, CA, USA) was added and incubated for 45 minutes. The target antigen was visualized by confocal fluorescence microscopy Zeiss LSM 880 Airyscan (Carl Zeiss AG, Oberkochen, Germany).

[1] = system: pancreatic cancer PL45 cells; set-up: method as in PMID 20014866, PMID 29202402; settings: read-out: IC50 (inhibition of pancreatic cancer PL45 cells); cited from earlier work

## C=CCNC1=C2C[C@@H](C)C[C@H](OC)[C@H](O)[C@@H](C)/C=C(\C)[C@H](OC(N)=O)[C@@H](OC)/C=C\C=C(/C)C(=O)NC(=CC1=O)C2=O [17AAG, 17-allylaminogeldanamycin]
PL45 cells
  IC50: 127 nM

## Dimer-Sansalvamide A cyclodecapeptide [Dimer-San A]
Hsp90 in PL45 cells
  binding / co-localization with Hsp90 (confocal immunofluorescence): bound to the Hsp90 target
[1]
  IC50: 1 to 20 nM
